Earlier results in patent US11466019B2, “Triazolo[4,5-d] pyramidine derivatives and their use as purine receptor antagonists” (Vernalis (R&D) Limited, priority 2008, dated 2022).

Key:
[1] = system: cataleptic responses; conditions: cited from earlier work
[2] = system: Parkinsonian patients; conditions: cited from earlier work

| Structure (SMILES) | anticataleptic effects of a subthreshold dose of L-DOPA plus benserazide ([1]; combination) | catalepsy induced by haloperidol and reserpine ([1]; in vivo) | cataleptic responses induced by intracerebroventricular administration of CGS 21680 ([1]; oral administration) | mean objective disability scores ([2]; 15 Parkinsonian patients, treated for up to 12 weeks) | patients who reported moderate or marked subjective improvement ([2]; of 15 Parkinsonian patients, treated for up to 12 weeks) | serum theophylline levels ([2]; slow release oral theophylline preparation, after one week, Parkinsonian patients) |
| --- | --- | --- | --- | --- | --- | --- |
| CCCn1c(=O)c2c(nc(/C=C/c3ccc(OC)c(OC)c3)n2C)n(CCC)c1=O [KF 17837, E-8-(3,4dimethoxystyryl)-1,3-dipropyl-7-methylxanthine] | potentiated the anticataleptic effects | reduced the catalepsy | significantly ameliorated |  |  |  |
| Cn1c(=O)c2[nH]cnc2n(C)c1=O [theophylline, 1,3-dimethylxanthine] |  |  |  | significant improvements | 11 | 4.44 mg/L |
